Laboratory results: patent US4465681A, “Bis-(aminoalkoxy)-phenyl, pyridyl ketones, and use as immunological agents” (Yoshitomi Pharmaceutical Industries Ltd., priority 1980, dated 1984)
“Also recorded” adds a separate entry of the source. Counter-ions that a name gives are not always drawn.

How the values were obtained:
[1] = test system: plaque-forming cells (PFC) in the spleen; assay: Activity for suppressing immune response in BALB/C strain mice: plaque-forming cells (PFC); type: in vivo, female BALB/C strain mice; conditions: 30 mg/kg orally, same and next day of sensitization; 4 days after sensitization; control 17.4 ± 2.3 (for A), 9.5 ± 1.0 (for B); **p < 0.01 vs control
Procedure: (§1) Female BALB/C strain mice (6 weeks old) were used by dividing into groups of 6 animals. The sensitization was made by intraperitoneal injection of antigen: 5×10^8 sheep red blood cells. Each mouse was orally administered with the test compound on the same day and the next day of the sensitization. Four days after the sensitization, the number of plaque-forming cells (PFC) in the spleen, and the number of rosette-forming cells (RFC) in the spleen and/or thymus were measured in a usual manner.

[2] = test system: rosette-forming cells (RFC) in the spleen and/or thymus; assay: Activity for suppressing immune response in BALB/C strain mice: rosette-forming cells (RFC); type: in vivo, female BALB/C strain mice; conditions: 30 mg/kg orally, 4 days after sensitization; for No. of RFC, Spleen: control 135 ± 27 (for A), 172 ± 32 (for B), B **p < 0.01 vs control
Procedure: as §1

[3] = test system: rosette-forming cells (RFC) in the spleen and/or thymus; assay: Activity for potentiating immune response in C57BL/6 strain mice: rosette-forming cells (RFC); type: in vivo, female C57BL/6 strain mice; conditions: 30 mg/kg orally, 6 days after sensitization; for No. of RFC, Spleen: control 75 ± 17 (for A), 55 ± 11 (for B), **p < 0.01 vs control
Procedure: Female C57BL/6 strain mice (6 weeks old) were used dividing into groups of 6 animals. The sensitization was made by intraperitoneal injection of antigen: 5×10^8 sheep red blood cells. Each mouse was orally administered with the test compound on the same day and next day of the sensitization. Six days after the sensitization, the number of rosette-forming cells (RFC) in the spleen and/or thymus was measured in a usual manner.

peritoneal macrophages = assay: Activation of peritoneal macrophage in mice (phagocytosis of yeast); type: cell-based, male dd mice; conditions: 0 μM control 33.9 ± 0.8
Procedure: Peritoneal macrophages were obtained from male dd mice (8 weeks old). After washing macrophages, the cells were adjusted to 5×10^6 macrophages/ml in Hanks' solution. A mixture containing 100 μl of the macrophage suspension, 50 μl of mice serum and 10 μl of the test compound was preincubated at 37° C. for 10 minutes, and then 50 μl of yeast cells (2.5×10^8 /ml) was added thereto. After further incubation of the mixture at 37° C. for 20 minutes, the number of macrophages phagocytosing yeast was counted in a usual manner.

Acute toxicity = type: in vivo; conditions: mouse, in vivo
Procedure: (§2) Acute toxicity was determined using male dd mice (8 weeks old).

male dd mice = assay: Acute toxicity; type: in vivo; conditions: p.o.; printed beside LD50 >1000 mg/kg
Procedure: as §2

adjuvant arthritis = assay: Anti-adjuvant arthritis activity in rats; type: in vivo, male Lewis rats
Procedure: (A model disease of rheumatoid arthritis) Male Lewis rats (8-9 weeks old) were used. Adjuvant arthritis was caused by the method described by B. B. Newbould in "Brit. J. Pharmacol.", 21, 127 (1963). Twenty-one days after the subcutaneous injection of a suspension of killed tubercle bacillus in Freund's adjuvant into the tail of the rats, the severity of arthritis was assayed as the hindleg volume. Each group of the rat was orally administered with the test compound once a day.

In the case of `CC(CN(C)C)Oc1ccc(C(=O)c2cccnc2OC(C)CN(C)C)cc1` (stereo not shown) [Test compound B, 2,4'-bis(1-methyl-2-dimethylaminoethoxy)-3-benzoylpyridine dioxalate], the “No. of PFC, Spleen” value [1] is reported as 4.6 ± 0.8 × 10^4, the “No. of RFC, Spleen” value [2] is reported as 88 ± 10 × 10^4 and the “No. of RFC, Spleen” value [3] is reported as 149 ± 22 × 10^4. The Phagocytosis (peritoneal macrophages; 10 μM) was 40.8 ± 2.7%, the Phagocytosis (peritoneal macrophages; 30 μM, **p < 0.01 vs control) was 49.6 ± 2.1% and the Phagocytosis (peritoneal macrophages; 100 μM, **p < 0.01 vs control) was 63.4 ± 6.7%. The LD50 (Acute toxicity; ip) was 250 mg/kg, the LD50 (Acute toxicity; po) was over 1000 mg/kg and the dead/total animals (male dd mice) was 0/5.
In the case of `CN(C)CCOc1ccc(C(=O)c2cccnc2OCCN(C)C)cc1` [Test compound A, 2,4'-bis(2-dimethylaminoethoxy)-3-benzoylpyridine dihydrochloride hemihydrate], the “Volume of Hindleg” value (adjuvant arthritis; 50 mg/kg orally once a day, twenty-one days after adjuvant injection, control 2.40 ± 0.20, **p < 0.01 vs control) is reported as 1.17 ± 0.29 mL, the “anti-adjuvant arthritis activity (in words)” value (adjuvant arthritis; dose of 50 mg/kg, dihydrochloride hemihydrate, 50 mg/kg) is reported as “significant inhibition of adjuvant arthritis; also recorded: has anti-arthritis activity” and the “No. of PFC, Spleen” value [1] is reported as 9.0 ± 1.4 × 10^4. For the same molecule, the “No. of RFC, Thymus” value ([2]; control 9.5 ± 1.0, **p < 0.01 vs control) was 1.2 ± 0.4 × 10^4, the “No. of RFC, Spleen” value [2] was 126 ± 24 × 10^4 and the “No. of RFC, Thymus” value ([3]; control 2.8 ± 0.5, **p < 0.01 vs control) was 7.4 ± 1.1 × 10^4. The “No. of RFC, Spleen” value [3] was 214 ± 46 × 10^4, the Phagocytosis (peritoneal macrophages; 10 μM) was 35.5 ± 1.9% and the Phagocytosis (peritoneal macrophages; 30 μM, **p < 0.01 vs control) was 46.5 ± 2.7%. For the same molecule, the Phagocytosis (peritoneal macrophages; 100 μM, **p < 0.01 vs control) was 54.3 ± 3.1%, the LD50 (Acute toxicity; ip) was 300 mg/kg and the LD50 (Acute toxicity; po) was over 1000 mg/kg. For the same molecule, the dead/total animals (male dd mice) was 1/6.
